In ChEMBL document CHEMBL4420062, “Tfpi inhibitors and methods of use” (2013):
Where a SMILES comes first, the peptide text is derived from it. [ ]: non-standard residue; d: D form. The star is where a group is joined. Tle = CC(C)(C)[C@H](N)C(=O)O; Hexanoyl = CCCCCC(=O)*; Aib = CC(C)(N)C(=O)O; Acm = CC(=O)NC*

test: Stability in human plasma assessed as parent compound remaining after 24 hrs; format: ADME, cell-free; conditions: read-out: Stability

Compound | remaining at 24 h
CCCCCC(=O)N[C@@H](Cc1ccccc1)C(=O)N[C@@H](CCC(N)=O)C(=O)N[C@@H](CO)C(=O)N[C@@H](CCCCN)C(=O)N1CCC[C@@H]1C(=O)N[C@@H](CSCNC(C)=O)C(=O)N[C@H](C(=O)N[C@@H](Cc1cnc[nH]1)C(=O)N[C@H](C(=O)N[C@@H](CC(=O)O)C(=O)N[C@H](C)C(=O)N[C@@H](Cc1ccc(O)cc1)C(=O)N[C@@H](Cc1ccccc1)C(=O)N[C@@H](CCC(=O)O)C(=O)N[C@@H](CCCNC(=N)N)C(=O)N[C@@H](CC(C)C)C(=O)NC(C)(C)C(=O)N[C@@H](C)C(=O)N[C@@H](CCCCN)C(=O)N[C@@H](CC(C)C)C(N)=O)C(C)(C)C)C(C)C (Hexanoyl-FQSK[dP]C(Acm)VH[Tle]D[dA]YFERL[Aib]AKL-NH2) | 90.1 to 93%
CC(=O)N[C@@H](Cc1ccccc1)C(=O)N[C@@H](CCC(N)=O)C(=O)N[C@@H](CO)C(=O)N[C@@H](CCCCN)C(=O)N1CCC[C@@H]1C(=O)N[C@@H](CC(N)=O)C(=O)N[C@H](C(=O)N[C@@H](Cc1cnc[nH]1)C(=O)N[C@H](C(=O)N1CCC[C@H]1C(=O)N[C@@H]1CSSCC[C@@H](C(=O)N[C@@H](CCCNC(=N)N)C(=O)N[C@@H](CC(C)C)C(=O)NC(C)(C)C(=O)N[C@@H](C)C(=O)N[C@@H](CCCCN)C(=O)N[C@@H](CC(C)C)C(N)=O)NC(=O)[C@H](Cc2ccccc2)NC(=O)[C@H](Cc2ccc(O)cc2)NC1=O)C(C)C)C(C)C | 40.7%
CC(=O)N[C@@H](Cc1ccccc1)C(=O)N[C@@H](CCC(N)=O)C(=O)N[C@@H](CO)C(=O)N[C@@H](CCCCN)C(=O)N1CCC[C@@H]1C(=O)N[C@@H](CCCNC(=N)N)C(=O)N[C@H](C(=O)N[C@@H](Cc1cnc[nH]1)C(=O)N[C@H](C(=O)N[C@@H](CC(=O)O)C(=O)NCC(=O)N[C@@H](Cc1ccc(O)cc1)C(=O)N[C@@H](Cc1ccccc1)C(=O)N[C@@H](CCC(=O)O)C(=O)N[C@@H](CCCNC(=N)N)C(=O)N[C@@H](CC(C)C)C(=O)NC(C)(C)C(=O)N[C@@H](C)C(=O)N[C@@H](CCCCN)C(=O)N[C@@H](CC(C)C)C(N)=O)C(C)(C)C)C(C)C | 66.1%
CC(=O)N[C@@H](Cc1ccccc1)C(=O)N[C@@H](CCC(N)=O)C(=O)N[C@@H](CO)C(=O)N[C@@H](CCCCN)C(=O)N1CCC[C@@H]1C(=O)N[C@@H](CC(N)=O)C(=O)N[C@H](C(=O)N[C@@H](Cc1cnc[nH]1)C(=O)N[C@H](C(=O)N1CCC[C@H]1C(=O)NCC(=O)N[C@@H](Cc1ccc(O)cc1)C(=O)N[C@@H](Cc1ccccc1)C(=O)N[C@@H](CCC(=O)O)C(=O)N[C@@H](CCCNC(=N)N)C(=O)N[C@@H](CC(C)C)C(=O)NC(C)(C)C(=O)N[C@@H](C)C(=O)N[C@@H](CCCCN)C(=O)N[C@@H](CC(C)C)C(N)=O)C(C)C)C(C)C | 76.3%
CCN1C(=O)CC(SC[C@H](NC(=O)[C@H](CC(C)C)NC(=O)[C@H](CCCCN)NC(=O)[C@H](C)NC(=O)C(C)(C)NC(=O)[C@H](CC(C)C)NC(=O)[C@H](CCCNC(=N)N)NC(=O)[C@H](CCC(=O)O)NC(=O)[C@H](Cc2ccccc2)NC(=O)[C@H](Cc2ccc(O)cc2)NC(=O)CNC(=O)[C@@H](CC(=O)O)NC(=O)[C@@H](NC(=O)[C@H](Cc2cnc[nH]2)NC(=O)[C@@H](NC(=O)[C@H](CS)NC(=O)[C@H]2CCCN2C(=O)[C@H](CCCCN)NC(=O)[C@H](CO)NC(=O)[C@H](CCC(N)=O)NC(=O)[C@H](Cc2ccccc2)NC(C)=O)C(C)C)C(C)C)C(N)=O)C1=O (stereo not given in full) | 70.9%
CC(=O)N[C@@H](Cc1ccccc1)C(=O)N[C@@H](CCC(N)=O)C(=O)N[C@@H](CO)C(=O)N[C@@H](CCCCN)C(=O)N(CCCN)CC(=O)N[C@@H](CC(N)=O)C(=O)N[C@H](C(=O)N[C@@H](Cc1cnc[nH]1)C(=O)N[C@H](C(=O)N[C@@H](CC(=O)O)C(=O)NCC(=O)N[C@@H](Cc1ccc(O)cc1)C(=O)N[C@@H](Cc1ccccc1)C(=O)N[C@@H](CCC(=O)O)C(=O)N[C@@H](CCCNC(=N)N)C(=O)N[C@@H](CC(C)C)C(=O)NC(C)(C)C(=O)N[C@@H](C)C(=O)N[C@@H](CCCCN)C(=O)N[C@@H](CC(C)C)C(N)=O)C(C)C)C(C)C | 46.7%
CC(C)C[C@@H]1NC(=O)[C@H](CCCCN)NC(=O)[C@H](C)NC(=O)C(C)(C)NC(=O)[C@H](CC(C)C)NC(=O)[C@H](CCCNC(=N)N)NC(=O)[C@H](CCC(=O)O)NC(=O)[C@H](Cc2ccccc2)NC(=O)[C@H](Cc2ccc(O)cc2)NC(=O)CNC(=O)[C@H](CC(=O)O)NC(=O)[C@H](C(C)C)NC(=O)[C@H](Cc2cnc[nH]2)NC(=O)[C@H](C(C)C)NC(=O)[C@H](CC(N)=O)NC(=O)[C@H]2CCCN2C(=O)[C@H](CCCCN)NC(=O)[C@H](CO)NC(=O)[C@H](CCC(N)=O)NC(=O)[C@H](Cc2ccccc2)NC(=O)CCOCCOCCOCCOCCNC1=O | 55.9%
CC(=O)N[C@@H](Cc1ccccc1)C(=O)N[C@@H](CCC(N)=O)C(=O)N[C@@H](CO)C(=O)N[C@@H](CCCCN)C(=O)N1CCC[C@@H]1C(=O)N[C@@H](CC(N)=O)C(=O)N[C@H](C(=O)N[C@@H](Cc1cnc[nH]1)C(=O)N[C@H](C(=O)N[C@@H](CC(=O)O)C(=O)N[C@H](C)C(=O)N[C@@H](Cc1ccc(O)cc1)C(=O)N[C@@H](Cc1ccccc1)C(=O)N[C@@H](CCC(=O)O)C(=O)N[C@@H](CCCNC(=N)N)C(=O)N[C@@H](CC(C)C)C(=O)NC(C)(C)C(=O)N[C@H]1CSSCCNC(=O)[C@H](CC(C)C)NC(=O)[C@H](CCCCN)NC1=O)C(C)(C)C)C(C)C | 16%
CCN1C(=O)CC(SC[C@H](NC(=O)[C@H](CC(C)C)NC(=O)[C@H](CCCCN)NC(=O)[C@H](C)NC(=O)C(C)(C)NC(=O)[C@H](CC(C)C)NC(=O)[C@H](CCCNC(=N)N)NC(=O)[C@H](CCC(=O)O)NC(=O)[C@H](Cc2ccccc2)NC(=O)[C@H](Cc2ccc(O)cc2)NC(=O)CNC(=O)[C@H](Cc2cnc[nH]2)NC(=O)[C@@H](NC(=O)[C@H](Cc2cnc[nH]2)NC(=O)[C@@H](NC(=O)[C@H](CC(N)=O)NC(=O)[C@H]2CCCN2C(=O)[C@H](CCCCN)NC(=O)[C@H](CO)NC(=O)[C@H](CCC(N)=O)NC(=O)[C@H](Cc2ccccc2)NC(C)=O)C(C)C)C(C)C)C(N)=O)C1=O (stereo not given in full) | 18.6%
CCCCCC(=O)N[C@@H](Cc1ccccc1)C(=O)N[C@@H](CCC(N)=O)C(=O)N[C@@H](CO)C(=O)N[C@@H](CCCCN)C(=O)N1CCC[C@@H]1C(=O)N[C@@H](CSCNC(C)=O)C(=O)N[C@H](C(=O)N[C@@H](Cc1cnc[nH]1)C(=O)N[C@H](C(=O)N[C@@H](CC(=O)O)C(=O)N[C@H](C)C(=O)N[C@@H](Cc1ccc(O)cc1)C(=O)N[C@@H](Cc1ccccc1)C(=O)N[C@@H](CCC(=O)O)C(=O)N[C@@H](CCCNC(=N)N)C(=O)N[C@@H](CC(C)C)C(=O)NC(C)(C)C(=O)N[C@@H](C)C(=O)N[C@@H](CCCCN)C(=O)N[C@@H](CC(C)C)C(=O)N[C@@H](CSC1CC(=O)N(CC)C1=O)C(=O)O)C(C)(C)C)C(C)C (stereo not given in full) | 107%
CCN1C(=O)CC(SC[C@H](NC(=O)[C@H](CC(C)C)NC(=O)[C@H](CCCCN)NC(=O)[C@H](C)NC(=O)C(C)(C)NC(=O)[C@H](CC(C)C)NC(=O)[C@H](CCCNC(=N)N)NC(=O)[C@H](CCC(=O)O)NC(=O)[C@H](Cc2ccccc2)NC(=O)[C@H](Cc2ccc(O)cc2)NC(=O)CNC(=O)[C@@H](NC(=O)[C@@H](NC(=O)[C@H](Cc2cnc[nH]2)NC(=O)[C@@H](NC(=O)[C@H](CC(N)=O)NC(=O)[C@H]2CCCN2C(=O)[C@H](CCCCN)NC(=O)[C@H](CO)NC(=O)[C@H](CCC(N)=O)NC(=O)[C@H](Cc2ccccc2)NC(C)=O)C(C)C)C(C)(C)C)[C@@H](C)O)C(N)=O)C1=O (stereo not given in full) | 52.6%
CC(C)C[C@H](NC(=O)[C@H](CCCCN)NC(=O)[C@H](C)NC(=O)C(C)(C)NC(=O)[C@H](CC(C)C)NC(=O)[C@H](CCCNC(=N)N)NC(=O)[C@H](CCC(=O)O)NC(=O)[C@H](Cc1ccccc1)NC(=O)[C@H](Cc1ccc(O)cc1)NC(=O)[C@@H](C)NC(=O)[C@H](CC(=O)O)NC(=O)[C@@H](NC(=O)[C@H](Cc1cnc[nH]1)NC(=O)[C@@H](NC(=O)[C@H](CC(N)=O)NC(=O)[C@H]1CCCN1C(=O)[C@H](CCCCN)NC(=O)[C@H](CO)NC(=O)[C@H](CCC(N)=O)NC(=O)[C@H](Cc1ccccc1)NC(=O)Cc1ccc2ccccc2c1)C(C)C)C(C)(C)C)C(N)=O | 108%
CCN1C(=O)CC(SC[C@H](NC(=O)[C@H](CC(C)C)NC(=O)[C@H](CCCCN)NC(=O)[C@H](C)NC(=O)C(C)(C)NC(=O)[C@H](CC(C)C)NC(=O)[C@H](CCCNC(=N)N)NC(=O)[C@H](CCC(=O)O)NC(=O)[C@H](Cc2ccccc2)NC(=O)[C@H](Cc2ccc(O)cc2)NC(=O)CNC(=O)[C@@H]2CCCN2C(=O)[C@@H](NC(=O)[C@H](Cc2cnc[nH]2)NC(=O)[C@@H](NC(=O)[C@H](CC(N)=O)NC(=O)[C@H]2CCCN2C(=O)[C@H](CCCCN)NC(=O)[C@H](CO)NC(=O)[C@H](CCC(N)=O)NC(=O)[C@H](Cc2ccccc2)NC(C)=O)C(C)C)C(C)(C)C)C(N)=O)C1=O (stereo not given in full) | 55.9%
CCN1C(=O)CC(SC[C@H](NC(=O)[C@H](CC(C)C)NC(=O)[C@H](CCCCN)NC(=O)[C@H](C)NC(=O)C(C)(C)NC(=O)[C@H](CC(C)C)NC(=O)[C@H](CCCNC(=N)N)NC(=O)[C@H](CCC(=O)O)NC(=O)[C@H](Cc2ccccc2)NC(=O)[C@H](Cc2ccc(O)cc2)NC(=O)CNC(=O)[C@@H](NC(=O)[C@@H](NC(=O)[C@H](Cc2cnc[nH]2)NC(=O)[C@@H](NC(=O)[C@H](CC(N)=O)NC(=O)[C@H]2CCCN2C(=O)[C@H](CCCCN)NC(=O)[C@H](CO)NC(=O)[C@H](CCC(N)=O)NC(=O)[C@H](Cc2ccccc2)NC(C)=O)C(C)C)C(C)C)[C@@H](C)O)C(N)=O)C1=O (stereo not given in full) | 41.4%
CCN1C(=O)CC(SC[C@H](NC(=O)[C@H](CC(C)C)NC(=O)[C@H](CCCCN)NC(=O)[C@H](C)NC(=O)C(C)(C)NC(=O)[C@H](CC(C)C)NC(=O)[C@H](CCCNC(=N)N)NC(=O)[C@H](CCC(=O)O)NC(=O)[C@H](Cc2ccccc2)NC(=O)[C@H](Cc2ccc(O)cc2)NC(=O)CNC(=O)[C@H](CO)NC(=O)[C@@H](NC(=O)[C@H](Cc2cnc[nH]2)NC(=O)[C@@H](NC(=O)[C@H](CC(N)=O)NC(=O)[C@H]2CCCN2C(=O)[C@H](CCCCN)NC(=O)[C@H](CO)NC(=O)[C@H](CCC(N)=O)NC(=O)[C@H](Cc2ccccc2)NC(C)=O)C(C)C)C(C)C)C(N)=O)C1=O (stereo not given in full) | 33.4%
